Entries after “also recorded” stand apart in the source; their conditions may differ.
Legend:
PGM1-CDG patients = test: Open-label prospective study of oral D-gal supplementation: safety and tolerability; format: in vivo, human
Text: The study design was an open-label prospective study. Patients with biochemically and genetically confirmed PGM1 deficiency were recruited into the study. Individuals with an existing diagnosis of aldolase B deficiency, galactosemia, hemolytic uremic syndrome, severe anemia, galactose intolerance, or intellectual disability were excluded from the study. Nine patients were enrolled in the study, five females and four males. Patient age ranged from 19 months to 21 years old at the time of enrollment (mean age 9.75 years). Informed written consent was obtained before the start of study. A primary end-point was to assess the safety and tolerability of oral D-gal supplementation and to identify physiological biomarkers that are responsive to D-gal supplementation in a heterogeneous genetic background. The effect of D-gal in PGM1-CDG patients was also monitored via glycomics. Secondary endpoints were the restoration of the plasma glycan subfractions, monitored via glycomics (Table 3), and normalization of antithrombin III activity and serum alanine transaminase (ALT) levels.
Participants in this pilot study received oral D-gal supplementation, added to the regular diet, over 18 weeks. D-gal (pure and soluble D-galactose powder: D-GALACTOSE or Galaxtra™) was provided as medical food/nutritional supplement. 50 g D-gal equals 5 tablespoons of “powdered sugar”. D-gal was added to a meal once a day. It can be added to any food or drink and has a mildly sweet aftertaste.
The D-gal intake was increased over the study period in increments as follows: weeks 0-6 (T0-T1), 0.5 g/kg per day; weeks 6-12 (T1-T2), 1.0 g/kg per day; weeks 12-18 (T2-T3), 1.5 g/kg per day (FIG. 2). The intake was increased gradually to reach the recommended maximum daily dose with minimal gastrointestinal irritation (diarrhea, stomachache, nausea) and metabolic side effects (presence of urinary galactitol).
Tolerability and side effects of oral D-gal supplementation, based on studies in blood (glucose, lactic acid, ammonia, galactose-1-phosphate) and urine (galactitol excretion), were monitored at every time point.
Dietary assessment, clinical evaluation (general physical examination and anthropometric measurements), and laboratory and biochemical studies were completed every 6 weeks (T0, T1, T2 and T3).
(§1) Liver transaminases (aspartate transaminase (AST) and alanine transaminase (ALT)), creatine kinase (CK), commonly assayed glycoproteins (thyroid stimulating hormone (TSH), thyroxine-binding globulin (TBG), and insulin-like growth factor binding protein 3 (IGF3BP)), and coagulation parameters (Factor IX, Factor XI, activated […] (aPTT), and anti-thrombin III (ATIII)), were measured in blood. Patent 1 had additional Factor XI, and XIII measurements. Serum galactose-1-phosphate and urine galactitol were measured to monitor safety and tolerability of galactose supplementation. Biochemical studies to evaluate changes in glycosylation included isoelectric focusing (IEF) of serum transferrin and glycomic analysis in blood by mass spectrometry.
Electrocardiography/echocardiography and hepatic ultrasonography were conducted at T0 and T3.

serum transferrin = test: Glycomics / high-resolution mass spectrometry of intact serum transferrin at T0 and T3; format: in vivo, human; conditions: for Ratio A-Glyco / DiGlyco transferrin / Ratio Mono-Glyco / DiGlyco transferrin / Ratio Trisialo-Glyco / DiGlyco transferrin: T = 3; for Ratio A-Glyco / DiGlyco transferrin: control range <=0.01040; for Ratio Mono-Glyco / DiGlyco transferrin: control range <=0.02700; for Ratio Trisialo-Glyco / DiGlyco transferrin: control range <=0.031900
Method: as §1
Plasma (sodium heparin) or serum was used for glycomics analysis according to the procedure as described elsewhere (see, e.g., van Scherpenzeel et al., 2015 Transl Res 166:639-649.e1). Briefly, a 10 μl serum sample was purified using anti-transferrin beads. The eluate was analyzed on a microfluidic 6540 LC-chip-QTOF instrument (Agilent Technologies) using a C8 protein chip. Data analysis was performed using Agilent Mass Hunter Qualitative Analysis Software B.05.00.
The most abundant peaks in the transferrin mass spectrometry profiles were annotated, and ratios were calculated for the nonglycosylated (A-Glyco), monoglycosylated (Mono-Glyco), and trisialo- (Trisialo-Glyco) transferrin over the normal transferrin peak (tetrasialo; Di-Glyco). Ratios were compared in patient samples before D-gal supplementation and 18 weeks after starting oral supplements according to protocol. An example is shown in FIG. 5 for a severely (patient 2) and a mildly (patient 9) abnormal profile. A-Glyco- and Mono-Glyco ratios were abnormal in all patients. […] The most pronounced improvement was measured in patient 4. In patients 3 and 8, the A-Glyco peak normalized (Table 3, FIG. 6).

[1] = Blood concentration of D-gal after oral dose; format: in vivo, human; conditions: PGM1-CDG patients; 1-1.5 g/kg/day oral
Method: An oral dose of 0.3 g/kg D-gal supplement leads to a blood concentration of D-gal at 0.75 mM, 1.0 g/kg D-gal dose corresponds to 2.25 mM peak concentration of D-gal in blood, while an oral dose of 1.5 g/kg galactose supplement leads to a blood peak concentration of 3.5 mM (Tegtmeyer et al. 2014). The blood concentration of free D-galactose in un-supplemented individuals was below 0.01 mM.

PGM1-CDG fibroblasts = test: Galactose supplementation of PGM1-CDG fibroblasts, tracer based metabolomics; format: cell-based, human
Method: To probe the biochemical basis to galactose treatment, a tracer based metabolomics was employed to simultaneously track the activity of multiple pathways. Control and PGM1-CDG fibroblasts were cultured with 13C tagged glucose, with and without galactose. The 13C tracer was then incorporated into connected pathways after which, the cells were harvested to enable detection of metabolites by the mass-spectrometry.

ICAM-1 = ICAM-1 Western blotting with galactose supplementation, patient skin fibroblasts; conditions: patient 5; all doses
[2] = 2 mM galactose added to the culture medium for 5 days

With `O=C[C@H](O)[C@@H](O)[C@@H](O)[C@H](O)CO` [D-gal, D-galactose] the Serious adverse events (PGM1-CDG patients; 18 weeks oral D-gal) was “No serious adverse events were reported”, the “Galactitol excretion in urine” value (PGM1-CDG patients; during the trial) was “no patients experiencing increased galactitol excretion in urine” and the Adverse events (PGM1-CDG patients; incremental increase in D-gal intake, monitored weekly) was “Aside from gastroenteritis in patient 2, no clinical or metabolic adverse events”. For the same compound, the Galactose-1-phosphate levels (PGM1-CDG patients; patients 1, 2, 3, 5, 7, 9, T2 and T3) was “no abnormalities were found”, the “Structural cardiac or liver changes” value (PGM1-CDG patients; study endpoint) was “No structural cardiac or liver changes were noted” and the Clinical rhabdomyolysis (PGM1-CDG patients; while on galactose supplementation) was “none of the patients experienced clinical rhabdomyolysis”. For the same compound, the Transferrin glycosylation (serum transferrin; 8 patients, type 2 pattern shifting to mild type 1 pattern) was “Clear improvement”, the “Ratio A-Glyco / DiGlyco transferrin” value (serum transferrin; Patient 1) was 0.042 and the “Ratio Mono-Glyco / DiGlyco transferrin” value (serum transferrin; Patient 1) was 0.198. The “Ratio Trisialo-Glyco / DiGlyco transferrin” value (serum transferrin; Patient 1) was 0.0778, the “Ratio A-Glyco / DiGlyco transferrin” value (serum transferrin; Patient 2) was 0.046 and the “Ratio Mono-Glyco / DiGlyco transferrin” value (serum transferrin; Patient 2) was 0.213. The “Ratio Trisialo-Glyco / DiGlyco transferrin” value (serum transferrin; Patient 2) was 0.0542, the “Ratio A-Glyco / DiGlyco transferrin” value (serum transferrin; Patient 3) was 0.002 and the “Ratio Mono-Glyco / DiGlyco transferrin” value (serum transferrin; Patient 3) was 0.071. For the same compound, the “Ratio Trisialo-Glyco / DiGlyco transferrin” value (serum transferrin; Patient 3) was 0.0549, the “Ratio A-Glyco / DiGlyco transferrin” value (serum transferrin; Patient 4) was 0.314 and the “Ratio Mono-Glyco / DiGlyco transferrin” value (serum transferrin; Patient 4) was 0.632. The “Ratio Trisialo-Glyco / DiGlyco transferrin” value (serum transferrin; Patient 4) was 0.0938, the “Ratio A-Glyco / DiGlyco transferrin” value (serum transferrin; Patient 5) was 0.021 and the “Ratio Mono-Glyco / DiGlyco transferrin” value (serum transferrin; Patient 5) was 0.142. The “Ratio Trisialo-Glyco / DiGlyco transferrin” value (serum transferrin; Patient 5) was 0.0740, the “Ratio A-Glyco / DiGlyco transferrin” value (serum transferrin; Patient 6) was 0.044 and the “Ratio Mono-Glyco / DiGlyco transferrin” value (serum transferrin; Patient 6) was 0.293. For the same compound, the “Ratio Trisialo-Glyco / DiGlyco transferrin” value (serum transferrin; Patient 6) was 0.0639, the “Ratio A-Glyco / DiGlyco transferrin” value (serum transferrin; Patient 7) was 0.108 and the “Ratio Mono-Glyco / DiGlyco transferrin” value (serum transferrin; Patient 7) was 0.356. The “Ratio Trisialo-Glyco / DiGlyco transferrin” value (serum transferrin; Patient 7) was 0.0551, the “Ratio A-Glyco / DiGlyco transferrin” value (serum transferrin; Patient 8 (non-compliant)) was 0.003 and the “Ratio Mono-Glyco / DiGlyco transferrin” value (serum transferrin; Patient 8 (non-compliant)) was 0.081. The “Ratio Trisialo-Glyco / DiGlyco transferrin” value (serum transferrin; Patient 8 (non-compliant)) was 0.0712, the “Ratio A-Glyco / DiGlyco transferrin” value (serum transferrin; Patient 9) was 0.019 and the “Ratio Mono-Glyco / DiGlyco transferrin” value (serum transferrin; Patient 9) was 0.127. For the same compound, the “Ratio Trisialo-Glyco / DiGlyco transferrin” value (serum transferrin; Patient 9) was 0.0561, the Transferrin glycosylation pattern (serum transferrin; T3) was “None of the patients showed a normalized pattern” and the Transferrin glycosylation (serum transferrin; patient 5) was “no change was observed”. The A-glyco fraction (serum transferrin; patients 3 and 8, 18 weeks) was “completely normalized”, the “Peak concentration of galactose in blood” value [1] was 0.75 to 2 mM and the “Cellular UDP-hexose pools” value (PGM1-CDG fibroblasts; [2]) was “significant increase”. For the same compound, the Cellular glycosylation (PGM1-CDG fibroblasts; [2]) was “improved cellular glycosylation”, the “Levels of UDP-glucose and UDP-galactose” value (PGM1-CDG fibroblasts; culture media supplemented with galactose) was “restored depleted levels; also recorded: significantly increased” and the Glycosylation (PGM1-CDG fibroblasts; culture supplemented with galactose) was “restarted stalled glycosylation”. For the same compound, the ICAM-1 expression (ICAM-1) was “No improvement”.

From patent publication US20220241311A1, “METHODS AND MATERIALS FOR TREATING GLYCOSYLATION DISORDERS” (priority 2018, published 2022)
